Entries after “also recorded” stand apart in the source; their conditions may differ. Bridge positions count the residues as written; N and C are the ends. Peptide text beside a SMILES is read from it.
Experiments:
[1] = test system: complement alternative pathway (AP); test: Hemolytic assay (rabbit erythrocyte lysis in human serum); assay type: cell-based; settings: table 13; read-out: Lysis IC50
Experimental: Inhibition of complement was also measured via lysis of erythrocytes. Rabbit erythrocytes (Complement Technology Inc., Tyler, Tex., USA) were washed in PBS and resuspended in veronal-buffered saline with 5 mM MgCl2 and 10 mM EGTA (VBS-MgEGTA). Peptide and serum dilutions were prepared as described above, and 1×10^7 erythrocytes were added to each serum/peptide mixture. Erythrocytes diluted in sterile deionized water and in VBS-MgEGTA were used as positive and negative controls for lysis, respectively. Plates were incubated for 20 minutes at 37° C., and centrifuged at 2500×g for 10 minutes.
In all assays, MgEGTA was used to chelate Ca′ ions required for classical/lectin pathway complement activation, while providing Mg′ necessary for AP activation. ELISAs allow for direct detection of C3b and C5b-9 formed during AP activation, while erythrocyte lysis assays provide a functional assessment of AP-mediated hemolysis in serum.

[2] = test system: complement alternative pathway (AP); test: C5b-9 ELISA (inhibition of C5b-9 terminal complex formation); assay type: biochemical, human; settings: table 13; read-out: C5b-9 ELISA IC50
Experimental: (§1) Inhibition of the complement alternative pathway (AP) by compstatin family peptides was assayed by ELISA. Peptides were dissolved in phosphate buffered saline (PBS, 150 mM). Initial peptide concentrations were calculated using the Beer-Lambert Law with an extinction coefficient of 5,500 (1/M·cm) for Trp and 5,470 (1/M·cm) for methylated-Trp present in the sequence, at 280 nm. Nunc Maxisorp 96-well plates were coated with 1 μg lipopolysaccharides (LPS) from Salmonella enteriditis for ˜16 h at room temperature. Plates were washed three times with PBS/0.05% Tween-20 (PBS-T) between each step. Plates were blocked with 4% bovine serum albumin (BSA) in PBS-T for 1 h at 37° C. Serial peptide dilutions were performed in 96-well plates, using gelatin veronal-buffered saline with 5 mM MgCl2 and 10 mM EGTA (GVBS-MgEGTA). Normal human serum (Complement Technology Inc., Tyler, Tex., USA) was diluted in GVBS-MgEGTA and mixed with compstatin serial dilutions to a final concentration of 30%. Serum diluted in GVBS-MgEGTA and GVBS (containing 20 mM EDTA) were used as positive and negative controls for complement activation, respectively. Dilutions were preincubated for 15 minutes at room temperature, transferred to ELISA plates, and incubated for 1 h at 37° C. Generation of C3b and C5b-9 were assayed using horseradish peroxidase (HRP)-conjugated anti-C3 (MP Biomedicals, Solon, Ohio, USA) and anti-05b-9 aEll (Abcam, Cambridge, Mass., USA), respectively. Plates were washed and incubated with either anti-C3-HRP (1:5000 in 1% BSA/PBS-T) or anti-05b-9 (1:1000 in 1% BSA/PBS-T) for 1 h at 37° C. For C5b-9 detection, primary antibody incubation was followed by incubation with anti-mouse-HRP (BioRad, Hercules, Calif., USA) for 1 h at 37° C. (1:5000 in 1% BSA/PBS-T). Bound C3b and C5b-9 were quantified using a 3,3′,5,5′-tetramethylbenzidine substrate solution containing urea hydrogen peroxide in 0.11 M sodium acetate buffer, followed by a 1 N H2SO4 acid stop. Plates were measured spectrophotometrically at 450 nm. Percent inhibition of C3b and C5b-9 deposition was plotted against peptide concentration and the data was fitted to a logistic dose response curve with Prism software (GraphPad, San Diego, Calif., USA) to determine IC50 values.
(§2) In all assays, MgEGTA was used to chelate Ca′ ions required for classical/lectin pathway complement activation, while providing Mg′ necessary for AP activation. ELISAs allow for direct detection of C3b and C5b-9 formed during AP activation, while erythrocyte lysis assays provide a functional assessment of AP-mediated hemolysis in serum. […] Table 9 summarizes the IC50 values derived from the three different assays. […] The relative potencies of the peptides, based on the measured ICH values, are consistent across all three assays (Peptide III˜Peptide VI˜Peptide IX>Peptide I>Parent). Based on the assay conditions used in this study, peptides inhibited C5b-9 formation with moderately better efficacy than formation of C3b, while slightly higher concentrations were necessary to inhibit AP-mediated hemolysis.

[3] = test system: complement alternative pathway (AP); test: C3b ELISA (inhibition of C3b formation); assay type: biochemical, human; settings: table 13; read-out: C3b ELISA IC50
Experimental: as §1, §2

complement system = test: Preliminary ELISA-based complement system inhibition assays, human serum; assay type: biochemical; settings: preliminary data
Text: For some of the peptides studied here, W1, W13, R1, and S-1S0, there is experimental evidence for inhibitory activity against hC3. […] The structural rationale was that the positively charged backbone amino group was disrupting the hydrophobic cluster at the termini (spanning residues 11-C2-V3-V4/C12/T13 of native compstatin), which was deemed necessary for binding and activity before the availability of the structure of the C3c-W4A9 complex, and that upon removal of the positive charge by acetylation the hydrophobic cluster was fortified and contributed to the 3-fold increase in activity. […] The peptide with the diserine extension is expected to be active, as the diserine was present at the N-terminus of the original 32-amino acid peptide that was identified in the phage-display and a subsequent study.

hC3 = hC3 (Homo sapiens, UniProt P01024); test: Activity measurements of inhibitory activity against hC3 (method not described); settings: relative to W4A9
[4] = Experimental solubility of analogs (method not described); assay type: physicochemical; settings: aqueous environment

hC3, sequence (P01024 23-1663): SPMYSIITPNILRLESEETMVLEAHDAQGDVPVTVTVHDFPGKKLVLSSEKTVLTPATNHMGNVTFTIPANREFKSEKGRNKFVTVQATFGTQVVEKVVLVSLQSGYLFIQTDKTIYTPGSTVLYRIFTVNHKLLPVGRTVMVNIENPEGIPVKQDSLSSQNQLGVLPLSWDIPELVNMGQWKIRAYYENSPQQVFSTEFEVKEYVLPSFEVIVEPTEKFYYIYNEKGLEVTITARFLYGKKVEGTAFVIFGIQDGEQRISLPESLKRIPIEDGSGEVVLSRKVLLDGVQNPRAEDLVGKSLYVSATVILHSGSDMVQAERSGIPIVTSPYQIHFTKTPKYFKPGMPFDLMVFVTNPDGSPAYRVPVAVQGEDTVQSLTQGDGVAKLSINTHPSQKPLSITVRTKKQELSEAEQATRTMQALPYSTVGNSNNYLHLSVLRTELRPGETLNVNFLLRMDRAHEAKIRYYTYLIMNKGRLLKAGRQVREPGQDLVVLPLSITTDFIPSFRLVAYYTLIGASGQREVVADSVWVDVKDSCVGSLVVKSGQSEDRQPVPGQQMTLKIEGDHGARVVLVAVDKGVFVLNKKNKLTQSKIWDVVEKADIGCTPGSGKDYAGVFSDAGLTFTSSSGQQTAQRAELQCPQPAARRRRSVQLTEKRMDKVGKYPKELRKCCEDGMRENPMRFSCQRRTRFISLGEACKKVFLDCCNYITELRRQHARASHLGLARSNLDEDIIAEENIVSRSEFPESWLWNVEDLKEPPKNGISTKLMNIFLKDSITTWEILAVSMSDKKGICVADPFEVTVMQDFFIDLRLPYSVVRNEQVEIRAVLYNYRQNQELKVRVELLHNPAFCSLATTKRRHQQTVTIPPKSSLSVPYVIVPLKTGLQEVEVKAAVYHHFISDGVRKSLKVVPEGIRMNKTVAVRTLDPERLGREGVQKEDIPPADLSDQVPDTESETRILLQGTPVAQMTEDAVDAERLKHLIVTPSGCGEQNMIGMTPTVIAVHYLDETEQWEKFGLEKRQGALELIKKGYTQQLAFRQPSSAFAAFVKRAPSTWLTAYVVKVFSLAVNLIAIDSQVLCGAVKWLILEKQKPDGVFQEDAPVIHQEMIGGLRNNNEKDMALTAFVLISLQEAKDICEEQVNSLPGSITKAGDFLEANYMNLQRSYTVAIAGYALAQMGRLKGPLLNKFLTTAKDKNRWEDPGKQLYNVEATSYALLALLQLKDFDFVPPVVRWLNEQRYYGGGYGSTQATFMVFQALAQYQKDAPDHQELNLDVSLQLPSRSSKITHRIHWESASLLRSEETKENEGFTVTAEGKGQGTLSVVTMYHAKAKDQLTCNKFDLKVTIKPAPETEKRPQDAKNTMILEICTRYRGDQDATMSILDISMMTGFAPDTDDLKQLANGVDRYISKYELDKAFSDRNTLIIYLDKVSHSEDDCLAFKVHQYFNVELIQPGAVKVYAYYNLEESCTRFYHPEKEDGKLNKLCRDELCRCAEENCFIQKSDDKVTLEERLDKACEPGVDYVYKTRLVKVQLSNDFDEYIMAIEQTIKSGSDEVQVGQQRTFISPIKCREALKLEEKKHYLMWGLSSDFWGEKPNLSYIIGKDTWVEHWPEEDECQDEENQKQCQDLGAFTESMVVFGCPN

Structure (SMILES) | IC50 [1] | IC50 [2] | IC50 [3] | inhibitory activity in human serum (in words) (complement system) | inhibitory activity against hC3 (in words) (hC3) | solubility (in words) [4]
CC[C@H](C)[C@H](NC(=O)[C@H](CCCNC(=N)N)NC(=O)[C@H](CCC(=O)O)NC(C)=O)C(=O)N[C@H]1CSSC[C@@H](C(=O)N[C@H](C(N)=O)[C@@H](C)O)NC(=O)[C@H](CCCNC(=N)N)NC(=O)[C@H](Cc2c[nH]cn2)NC(=O)[C@H](C)NC(=O)CNC(=O)[C@H](Cc2c[nH]c3ccccc23)NC(=O)[C@H](CC(=O)O)NC(=O)[C@H](CCC(N)=O)NC(=O)[C@H](Cc2c[nH]c3ccccc23)NC(=O)[C@H](C(C)C)NC1=O [Peptide 3.1, Ac-ER-ICV WQDWGA HRCT-NH2] | 900 ± 200 nM | 500 ± 100 nM | 900 ± 100 nM | – | – | –
CC(=O)N[C@@H](CC(N)=O)C(=O)N[C@@H](CC(N)=O)C(=O)N[C@@H](CC(C)C)C(=O)N[C@H]1CSSC[C@@H](C(=O)N[C@H](C(N)=O)[C@@H](C)O)NC(=O)[C@H](CCCNC(=N)N)NC(=O)[C@H](Cc2c[nH]cn2)NC(=O)[C@H](C)NC(=O)CNC(=O)[C@H](Cc2c[nH]c3ccccc23)NC(=O)[C@H](CC(=O)O)NC(=O)[C@H](CCC(N)=O)NC(=O)[C@H](Cc2c[nH]c3ccccc23)NC(=O)[C@H](C(C)C)NC1=O [Peptide 3.2, Ac-NN-LCV WQDWGA HRCT-NH2] (Ac-NNLCVWQDWGAHRCT-NH2; disulfide 4-14) | 300 ± 100 nM | 500 ± 100 nM | 600 ± 100 nM | – | – | –
CC(=O)N[C@@H](CC(N)=O)C(=O)N[C@@H](CCCNC(=N)N)C(=O)N[C@@H](CC(C)C)C(=O)N[C@H]1CSSC[C@@H](C(=O)N[C@H](C(N)=O)[C@@H](C)O)NC(=O)[C@H](CCCNC(=N)N)NC(=O)[C@H](Cc2c[nH]cn2)NC(=O)[C@H](C)NC(=O)CNC(=O)[C@H](Cc2c[nH]c3ccccc23)NC(=O)[C@H](CC(=O)O)NC(=O)[C@H](CCC(N)=O)NC(=O)[C@H](Cc2c[nH]c3ccccc23)NC(=O)[C@H](C(C)C)NC1=O [Peptide 3.3, Ac-NR-LCV WQDWGA HRCT-NH2] (Ac-NRLCVWQDWGAHRCT-NH2; disulfide 4-14) | 300 ± 100 nM | 500 ± 100 nM | 600 ± 100 nM | – | – | –
CC[C@H](C)[C@H](NC(=O)[C@H](CO)NC(=O)[C@H](CCCNC(=N)N)NC(C)=O)C(=O)N[C@H]1CSSC[C@@H](C(=O)N[C@H](C(N)=O)[C@@H](C)O)NC(=O)[C@H](CCCNC(=N)N)NC(=O)[C@H](Cc2c[nH]cn2)NC(=O)[C@H](C)NC(=O)CNC(=O)[C@H](Cc2c[nH]c3ccccc23)NC(=O)[C@H](CC(=O)O)NC(=O)[C@H](CCC(N)=O)NC(=O)[C@H](Cc2c[nH]c3ccccc23)NC(=O)[C@H](C(C)C)NC1=O [Peptide 3.4, Ac-RS-ICV WQDWGA HRCT-NH2] | 300 ± 100 nM | 600 ± 100 nM | 700 ± 100 nM | – | – | –
CC[C@H](C)[C@H](NC(=O)[C@H](CO)NC(=O)[C@H](CO)NC(C)=O)C(=O)N[C@H]1CSSC[C@@H](C(=O)N[C@H](C(N)=O)[C@@H](C)O)NC(=O)[C@H](CCCNC(=N)N)NC(=O)[C@H](Cc2c[nH]cn2)NC(=O)[C@H](C)NC(=O)CNC(=O)[C@H](Cc2c[nH]c3ccccc23)NC(=O)[C@H](CC(=O)O)NC(=O)[C@H](CCC(N)=O)NC(=O)[C@H](Cc2c[nH]c3ccccc23)NC(=O)[C@H](C(C)C)NC1=O [Peptide IV, Ac-SS-ICV WQDWGA HRCT-NH2] | – | – | – | higher than those of native compstatin and slightly lower than those of the W4A9 analog | – | –
CC(=O)N[C@@H](Cc1c[nH]c2ccccc12)C(=O)N[C@H]1CSSC[C@@H](C(=O)N[C@@H](Cc2c[nH]c3ccccc23)C(N)=O)NC(=O)[C@H](CCCNC(=N)N)NC(=O)[C@H](Cc2c[nH]cn2)NC(=O)[C@H](C)NC(=O)CNC(=O)[C@H](Cc2c[nH]c3ccccc23)NC(=O)[C@H](CC(=O)O)NC(=O)[C@H](CCC(N)=O)NC(=O)[C@H](Cc2c[nH]c3ccccc23)NC(=O)[C@H](C(C)C)NC1=O [Peptide W1W13] (Ac-WCVWQDWGAHRCW-NH2; disulfide 2-12) | – | – | – | – | slightly reduced activities | slightly reduced activities and solubilities
CC(=O)N[C@@H](Cc1c[nH]c2ccccc12)C(=O)N[C@H]1CSSC[C@@H](C(=O)N[C@H](C(N)=O)[C@@H](C)O)NC(=O)[C@H](CCCNC(=N)N)NC(=O)[C@H](Cc2c[nH]cn2)NC(=O)[C@H](C)NC(=O)CNC(=O)[C@H](Cc2c[nH]c3ccccc23)NC(=O)[C@H](CC(=O)O)NC(=O)[C@H](CCC(N)=O)NC(=O)[C@H](Cc2c[nH]c3ccccc23)NC(=O)[C@H](C(C)C)NC1=O [Peptide W1] (Ac-WCVWQDWGAHRCT-NH2; disulfide 2-12) | – | – | – | – | near-W4A9 inhibitory activity | good solubility
CC[C@H](C)[C@H](NC(C)=O)C(=O)N[C@H]1CSSC[C@@H](C(=O)N[C@@H](Cc2c[nH]c3ccccc23)C(N)=O)NC(=O)[C@H](CCCNC(=N)N)NC(=O)[C@H](Cc2c[nH]cn2)NC(=O)[C@H](C)NC(=O)CNC(=O)[C@H](Cc2c[nH]c3ccccc23)NC(=O)[C@H](CC(=O)O)NC(=O)[C@H](CCC(N)=O)NC(=O)[C@H](Cc2c[nH]c3ccccc23)NC(=O)[C@H](C(C)C)NC1=O [Peptide W13] (Ac-ICVWQDWGAHRCW-NH2; disulfide 2-12) | – | – | – | – | slightly reduced activities | slightly reduced activities and solubilities; also recorded: solubility problems in aqueous environment
